Results: US20210403860A1 (priority 2018, published 2021)
“And” between values parts separate entries of the source, which are not always exact repeats. Equal entries are not always repeated. Where two headings read alike, the source gives them in different places.

Experiments:
[1] = tested on: Ca. L. asiaticus; assay type: cell-based, Candidatus Liberibacter asiaticus (strain psy62); conditions: for fold change in Ca. L. asiaticus GE: 7 days
[2] = tested on: Lysinibacillus mangiferihumi; assay type: cell-based
[3] = tested on: Clostridium argentinense; assay type: cell-based
[4] = tested on: Paenibacillus silvae; assay type: cell-based
[5] = tested on: Flavobacterium acidificum; assay type: cell-based
[6] = tested on: Pseudomonadaceae; assay type: cell-based
[7] = tested on: Bacillus cereus; conditions: cited from earlier work
[8] = tested on: Bacillaceae; assay type: cell-based
[9] = tested on: Ca. L. asiaticus; conditions: cited from earlier work
[10] = tested on: Pseudomonas putida; assay type: cell-based
[11] = tested on: Stenotrophomonas bentonitica; assay type: cell-based
[12] = tested on: Bacillus cereus; assay type: cell-based
[13] = tested on: Comamonas terrigena; assay type: cell-based
[14] = tested on: Pantoea cypripedii; assay type: cell-based
[15] = tested on: Brevibacillus gelatini; assay type: cell-based
[16] = tested on: Ca. L. asiaticus; assay type: cell-based; conditions: 10 mM glucose and 100 μg/ml amikacin

[H]/N=C(/N)N[C@H]1[C@H](O)[C@@H](O)[C@H](O[C@@H]2O[C@@H](C)[C@](O)(C=O)[C@H]2O[C@@H]2O[C@@H](CO)[C@H](O)[C@@H](O)[C@@H]2NC)[C@@H](N/C(N)=N\[H])[C@@H]1O [streptomycin]
fold change in Ca. L. asiaticus GE ([1]; 0.02 μg/ml streptomycin, vs non-antibiotic control): 5.56±0.15 fold and ~6 fold | Ca. L. asiaticus growth compared to untreated cultures ([1]; streptomycin >0.5 μg/ml): reduced | proportion of OTU 4 [2]: 0.000 | proportion of OTU 5 ([3]; Str 0.02 μg/ml): 0.002 | proportion of OTU 5 ([3]; Str 0.05 μg/ml): 0.007 | proportion of OTU 5 ([3]; Str 0.5 μg/ml): 0.154 | proportion of OTU 5 ([3]; Str 1.00 μg/ml): 0.131 | proportion of OTU 5 ([3]; Str 2.00 μg/ml): 0.104 | proportion of OTU 8 [4]: 0.000 | proportion of OTU 10 [5]: 0.000 | decrease of proportion of Pseudomonadaceae compared to non-antibiotic samples [6]: 5.5 times and 9.8 times | concentration sub-inhibitory to Bacillus cereus [7]: < 2.9 µg/mL

polymyxin B
fold change in Ca. L. asiaticus GE ([1]; 2 μg/ml polymyxin B, vs non-antibiotic control): 2.28±0.15 fold | fold change in Ca. L. asiaticus GE ([1]; 4 μg/ml polymyxin B, vs non-antibiotic control): 4.54±0.83 fold | fold change in Ca. L. asiaticus GE ([1]; <1 μg/ml polymyxin B, vs untreated cultures): 0.03±0.13 fold | proportion of OTU 4 [2]: 0.000 | proportion of OTU 5 ([3]; Pmb 0.5 μg/ml): 0.194 | proportion of OTU 5 ([3]; Pmb 2 μg/ml): 0.001 | proportion of OTU 5 ([3]; Pmb 4 μg/ml): 0.011 | proportion of OTU 8 [4]: 0.000 | reads that were Bacillaceae members [8]: 70.7% | decrease of proportion of Pseudomonadaceae compared to non-antibiotic samples [6]: 30.5 times | concentration sub-inhibitory to Bacillus cereus [7]: < 0.65 µg/mL | activity against / sensitivity of Ca. L. asiaticus [9]: not active

C[C@H]1O[C@H](O[C@H]2[C@H](O)[C@@H](O)[C@@H](O)[C@H](O)[C@@H]2O)[C@@H](N)C[C@@H]1NC(=N)C(=O)O [kasugamycin]
enhancement of Ca. L. asiaticus growth ([1]; kasugamycin treatment): did not enhance | proportion of OTU 1 [10]: 0.599 | proportion of OTU 2 [11]: 0.136 | proportion of OTU 3 [12]: 0.001 | proportion of OTU 4 [2]: 0.000 | proportion of OTU 5 ([3]; Kag 0.25 μg/ml): 0.030 | proportion of OTU 6 [13]: 0.000 | proportion of OTU 7 [14]: 0.005 | proportion of OTU 8 [4]: 0.000 | proportion of OTU 9 [15]: 0.001 | proportion of OTU 10 [5]: 0.056

NCC[C@H](O)C(=O)N[C@@H]1C[C@H](N)[C@@H](O[C@H]2O[C@H](CN)[C@@H](O)[C@H](O)[C@H]2O)[C@H](O)[C@H]1O[C@H]1O[C@H](CO)[C@@H](O)[C@H](N)[C@H]1O [amikacin]
Ca. L. asiaticus GE, day 3 ([16]; 10% O2 (FIG. 13)): 1.15×10^5±2.8×10^4 GE | fold potentiation in Ca. L. asiaticus DNA content vs glucose alone ([16]; three days): 3.03 fold | overall fold increase in GE compared to starting material (d0) ([16]; three days): 11.1 fold | activity against / sensitivity of Ca. L. asiaticus [9]: does not appear to be sensitive

CN[C@H](CC(C)C)C(=O)N[C@H]1C(=O)N[C@@H](CC(N)=O)C(=O)N[C@H]2C(=O)N[C@H]3C(=O)N[C@H](C(=O)N[C@H](C(=O)O)c4cc(O)cc(O)c4-c4cc3ccc4O)[C@H](O)c3ccc(c(Cl)c3)Oc3cc2cc(c3O[C@@H]2O[C@H](CO)[C@@H](O)[C@H](O)[C@H]2O[C@H]2C[C@](C)(N)[C@H](O)[C@H](C)O2)Oc2ccc(cc2Cl)[C@H]1O [vancomycin]
fold change in Ca. L. asiaticus GE ([1]; 50 μg/ml vancomycin, vs non-antibiotic control): 7.35±0.27 fold | proportion of OTU 1 [10]: 0.479 and 0.469 and 0.398 and 0.318 and 0.527 | proportion of OTU 5 ([3]; Van 25 μg/ml): 0.120 | proportion of OTU 5 ([3]; Van 35 μg/ml): 0.101 | proportion of OTU 5 ([3]; Van 50 μg/ml): 0.071 | proportion of OTU 5 ([3]; Van 75 μg/ml): 0.039 | proportion of OTU 5 ([3]; Van 100 μg/ml): 0.004 | proportion of OTU 8 [4]: 0.000 | proportion of OTU 9 [15]: 0.000
